Data set [1] in a line: Pharmacokinetics in rats after intragastric administration. To be noted: SD, rat, plasma, po, 50 mg/kg.
Procedure: (§1) Healthy adult SD rats (n=3 per group) were fasted overnight (free access to water), and then were administrated the drugs by intragastric administration (i.g.) (50 mg/kg). 0.1 mL of blood was collected from the jugular venous plexus of the rats at 15 minutes, 30 minutes, 1 hour, 2 hours, 4 hours, 6 hours, 8 hours, 24 hours after administration. All blood samples were anticoagulated with K2EDTA, then centrifuged at 3500 rpm at 5° C. for 10 minutes to separate plasma, and stored at −20° C. for test. Parent drug concentration in plasma was determined by LC/MS/MS method.
The next data set in a line: in vivo. The note with it: SD, rat, po, 50 mg/kg.

The AUC(0-inf) is total exposure, with the tail of the curve extrapolated. Lower therefore signals low exposure. For orientation: AUC(0-t) means the area under the concentration-time curve up to a stated or last time point. As usually defined, the Cmax is the peak of the concentration-time curve. By Tmax is commonly meant the time from dosing to the highest level. In general, half-life refers to the time needed for the level to fall by half in the phase considered. Read a low half-life as rapid decline.

Procedure for in vivo: as §1

Regarding `[2H]C([2H])=C([C@@H]1CCC(C([2H])([2H])[2H])=C[C@H]1c1c(O)cc(CCCCC)cc1O)C([2H])([2H])[2H]` [Example 7, (1′R,2′R)-5′-(methyl-d3)-4-pentyl-2′-(prop-1-en-2-yl-d5)-1′,2′,3′,4′-tetrahydro-[1,1′-biphenyl]-2,6-diol], in data set [1], the AUC(0-inf) came to 6290 ng·h/mL, the AUC(0-t) came to 5830 ng·h/mL, the Cmax amounted to 901 ng/mL and the time of peak concentration (Tmax) came to 2.2 h. Also, in data set [1], the half-life is 6.5 h.

As for `[2H]C([2H])(O)C1=C[C@@H](c2c(O)cc(CCCCC)cc2O)[C@H](C(=C)C)CC1([2H])[2H]` [Example 16], in data set [1], the AUC(0-inf) was 5630 ng·h/mL, the AUC(0-t) is 5490 ng·h/mL, the Cmax stood at 860 ng/mL and the Tmax worked out at 1.5 h. In data set [1], the half-life was 5.8 h.

In the case of `[2H]C([2H])([2H])C1=C[C@H](c2c(O)cc(CCC)cc2O)C(C(=C)C)CC1` (stereo in doubt) [Example 3, 5′-(methyl-d3)-2′-(prop-1-en-2-yl)-4-propyl-1′,2′,3′,4′-tetrahydro-[1,1′-biphenyl]-2,6-diol], in “in vivo”, the AUC(0-inf) is 4480 ng·h/mL, the AUC(0-t) was 4230 ng·h/mL, the Cmax worked out at 795 ng/mL and the Tmax stood at 2.1 h. Moreover, in “in vivo”, the half-life is 4.9 h.

`[2H]C([2H])([2H])C1=C[C@H](c2c(O)cc(CCCCC)c(C(=O)O)c2O)[C@@H](C(=C)C)CC1` [Example 23]: in data set [1], the AUC(0-inf) came to 8230 ng·h/mL, the AUC(0-t) is 6980 ng·h/mL, the Cmax is 977 ng/mL and the Tmax came out at 1.75 h. In data set [1], this compound gave a half-life of 6.5 h.

As for `[2H]C([2H])([2H])C1=C[C@@H](c2c(O)cc(CCCCCCC)cc2O)[C@H](C(=C)C)CC1` [Example 9, (1′R,2′R)-4-heptyl-5′-(methyl-d3)-2′-(prop-1-en-2-yl)-1′,2′,3′,4′-tetrahydro-[1,1′-biphenyl]-2,6-diol], in data set [1], the AUC(0-inf) was 6480 ng·h/mL, the AUC(0-t) turned out to be 6220 ng·h/mL, the maximum concentration (Cmax) was 823 ng/mL and the time of peak concentration (Tmax) is 2 h. This compound had a half-life in data set [1] of 7.9 h.

As to `[2H]C([2H])([2H])C1=C[C@@H](c2c(O)cc(CCCCC)cc2O)[C@H](C(=C)C)CC1([2H])[2H]` [Example 13, (1′R,2′R)-5′-(methyl-d3)-4-pentyl-2′-(prop-1-en-2-yl)-1′,2′,3′,4′-tetrahydro-[1,1′-biphenyl]-4′,4′-d2-2,6-diol], in data set [1], the AUC(0-inf) was found to be 6180 ng·h/mL, the exposure AUC(0-t) was found to be 5980 ng·h/mL, the peak level (Cmax) was 871 ng/mL and the Tmax worked out at 2 h. Besides, the half-life in data set [1] is 6 h.

In the case of `C=C(C)[C@@H]1CCC(C)=C[C@H]1c1c(O)cc(CCCCC)cc1O` [CBD, cannabidiol], in data set [1], the AUC(0-inf) came to 4500 ng·h/mL, the AUC(0-t) was found to be 4460 ng·h/mL, the Cmax amounted to 784 ng/mL and the Tmax was 2 h. Further, in data set [1], the half-life was 4.8 h.

For the origin of these results see patent publication US20230059087A1, “CANNABIDIOL DERIVATIVES, PREPARATION METHOD THEREOF AND USE THEREOF” (CHENGDU BAIYU PHARMACEUTICAL CO., LTD., priority 2020, published 2023).
